What was measured:
[1] = human gut metagenome, 24 h, 2 µM
[2] = (§1) The drug is tested on Z-003 corresponding to pig gut metagenome with ENA study accession number: PRJEB37062 and ENA sample accession number: ERS12561803 for biotransformation under anaerobic condition. The drug concentrations were measured over 9 timepoints collected between 0 and 24 hours of incubation by liquid-chromatography-coupled mass spectrometry (LC–MS); conditions: 2 µM
[3] = as §1, with “WLS-098” for “Z-003”, “human” for “pig”, “ERS12561754” for “ERS12561803”; conditions: 2 µM
[4] = human gut metagenome, 24 h, 2 µM; remark: listed apart in the source
[5] = as §1, with “WLS-069” for “Z-003”, “human” for “pig”, “ERS12561748” for “ERS12561803”; conditions: 2 µM
[6] = as §1, with “Z-021” for “Z-003”, “to” for “to pig gut”, “ERS12561820” for “ERS12561803”; conditions: 2 µM
[7] = as §1, with “WLS-010” for “Z-003”, “human” for “pig”, “ERS12561743” for “ERS12561803”; conditions: 2 µM
[8] = as §1, with “Z-028” for “Z-003”, “mouse” for “pig”, “ERS12561827” for “ERS12561803”; conditions: 2 µM
[9] = as §1, with “Z-013” for “Z-003”, “rabbit” for “pig”, “ERS12561813” for “ERS12561803”; conditions: 2 µM
[10] = as §1, with “Z-020” for “Z-003”, “rabbit” for “pig”, “ERS12561819” for “ERS12561803”; conditions: 2 µM
[11] = human gut metagenome, 24 h, 2 µM; remark: listed apart in the source
[12] = human gut metagenome, 24 h, 2 µM; remark: listed apart in the source
[13] = human gut metagenome, 24 h, 2 µM; remark: listed apart in the source
[14] = human gut metagenome, 24 h, 2 µM; remark: listed apart in the source
[15] = human gut metagenome, 24 h, 2 µM; remark: listed apart in the source
[16] = as §1, with “Z-006” for “Z-003”, “mouse” for “pig”, “ERS12561806” for “ERS12561803”; conditions: 2 µM
[17] = human gut metagenome, 24 h, 2 µM; remark: listed apart in the source
[18] = as §1, with “WLS-006” for “Z-003”, “human” for “pig”, “ERS12561741” for “ERS12561803”; conditions: 2 µM
[19] = as §1, with “Z-025” for “Z-003”, “rabbit” for “pig”, “ERS12561824” for “ERS12561803”; conditions: 2 µM
[20] = human gut metagenome, 24 h, 2 µM; remark: listed apart in the source
Note: call rule not given here.

SMILES	Bacterial Biotransformation [1]	Bacterial Biotransformation [2]	Bacterial Biotransformation [3]	Bacterial Biotransformation [4]	Bacterial Biotransformation [5]	Bacterial Biotransformation [6]	Bacterial Biotransformation [7]	Bacterial Biotransformation [8]	Bacterial Biotransformation [9]	Bacterial Biotransformation [10]	Bacterial Biotransformation [11]	Bacterial Biotransformation [12]	Bacterial Biotransformation [13]	Bacterial Biotransformation [14]	Bacterial Biotransformation [15]	Bacterial Biotransformation [16]	Bacterial Biotransformation [17]	Bacterial Biotransformation [18]	Bacterial Biotransformation [19]	Bacterial Biotransformation [20]
Cc1cc2c(cc1S(N)(=O)=O)S(=O)(=O)CCC2	Compound NOT metabolized	Compound NOT metabolized	Compound NOT metabolized	Compound NOT metabolized	Compound NOT metabolized	Compound NOT metabolized	Compound NOT metabolized	Compound NOT metabolized	Compound NOT metabolized	Compound NOT metabolized	Compound NOT metabolized	Compound NOT metabolized	Compound NOT metabolized	Compound NOT metabolized	Compound NOT metabolized	Compound NOT metabolized	Compound NOT metabolized	Compound NOT metabolized	Compound NOT metabolized	Compound NOT metabolized
CN1CCc2c(c3ccccc3n2Cc2ccccc2)C1.CN1CCc2c(c3ccccc3n2Cc2ccccc2)C1.O=S(=O)(O)c1cccc2c(S(=O)(=O)O)cccc12	Compound metabolized	Compound NOT metabolized	Compound NOT metabolized	Compound metabolized	Compound NOT metabolized	Compound NOT metabolized	Compound NOT metabolized	Compound NOT metabolized	Compound NOT metabolized	Compound NOT metabolized	Compound NOT metabolized	Compound metabolized	Compound NOT metabolized	Compound metabolized	Compound NOT metabolized	Compound NOT metabolized	Compound NOT metabolized	Compound NOT metabolized	Compound metabolized	Compound metabolized
CN1CC(=O)N2[C@H](c3ccc4c(c3)OCO4)c3[nH]c4ccccc4c3C[C@@H]2C1=O	Compound metabolized	Compound metabolized	Compound metabolized	Compound metabolized	Compound metabolized	Compound metabolized	Compound metabolized	Compound NOT metabolized	Compound NOT metabolized	Compound NOT metabolized	Compound NOT metabolized	Compound metabolized	Compound metabolized	Compound metabolized	Compound metabolized	Compound NOT metabolized	Compound metabolized	Compound metabolized	Compound NOT metabolized	Compound metabolized
COc1cc2nc(N(C)CCCNC(=O)C3CCCO3)nc(N)c2cc1OC (stereo not given) [ALFUZOSIN]	Compound metabolized	Compound metabolized	Compound metabolized	Compound metabolized	Compound metabolized	Compound NOT metabolized	Compound metabolized	Compound NOT metabolized	Compound NOT metabolized	Compound NOT metabolized	Compound metabolized	Compound NOT metabolized	Compound NOT metabolized	Compound metabolized	Compound NOT metabolized	Compound NOT metabolized	Compound metabolized	Compound metabolized	Compound NOT metabolized	Compound metabolized
O=P(O)(O)O.c1ccc(CN(CC2=NCCN2)c2ccccc2)cc1 [ANTAZOLINE PHOSPHATE]	Compound metabolized	Compound metabolized	Compound metabolized	Compound NOT metabolized	Compound NOT metabolized	Compound NOT metabolized	Compound NOT metabolized	Compound NOT metabolized	Compound NOT metabolized	Compound NOT metabolized	Compound metabolized	Compound NOT metabolized	Compound NOT metabolized	Compound NOT metabolized	Compound NOT metabolized	Compound NOT metabolized	Compound NOT metabolized	Compound metabolized	Compound NOT metabolized	Compound NOT metabolized

Second part, the compound after the results:

Bacterial Biotransformation [1]	Bacterial Biotransformation [2]	Bacterial Biotransformation [3]	Bacterial Biotransformation [4]	Bacterial Biotransformation [5]	Bacterial Biotransformation [6]	Bacterial Biotransformation [7]	Bacterial Biotransformation [8]	Bacterial Biotransformation [9]	Bacterial Biotransformation [10]	Bacterial Biotransformation [11]	Bacterial Biotransformation [12]	Bacterial Biotransformation [13]	Bacterial Biotransformation [14]	Bacterial Biotransformation [15]	Bacterial Biotransformation [16]	Bacterial Biotransformation [17]	Bacterial Biotransformation [18]	Bacterial Biotransformation [19]	Bacterial Biotransformation [20]	SMILES
Compound NOT metabolized	Compound NOT metabolized	Compound NOT metabolized	Compound NOT metabolized	Compound NOT metabolized	Compound NOT metabolized	Compound NOT metabolized	Compound NOT metabolized	Compound NOT metabolized	Compound NOT metabolized	Compound NOT metabolized	Compound NOT metabolized	Compound NOT metabolized	Compound NOT metabolized	Compound NOT metabolized	Compound NOT metabolized	Compound NOT metabolized	Compound NOT metabolized	Compound metabolized	Compound NOT metabolized	NC12CC3CC(CC(C3)C1)C2 [AMANTADINE]
Compound metabolized	Compound metabolized	Compound metabolized	Compound NOT metabolized	Compound metabolized	Compound metabolized	Compound NOT metabolized	Compound NOT metabolized	Compound NOT metabolized	Compound NOT metabolized	Compound NOT metabolized	Compound NOT metabolized	Compound NOT metabolized	Compound metabolized	Compound NOT metabolized	Compound NOT metabolized	Compound NOT metabolized	Compound NOT metabolized	Compound NOT metabolized	Compound metabolized	CC(C)(C#N)c1cc(Cn2cncn2)cc(C(C)(C)C#N)c1 [ANASTROZOLE]

From ChEMBL document CHEMBL5724914, “Linking interpersonal differences in gut microbiota composition and drug biotransformation activity” (2024)
